Source: US12655130B2 (ASSEMBLY BIOSCIENCES, INC., priority 2020, dated 2026)

Tested on: HBV viral load (viral production from HepAD38 cells)
Experiment: Activity of test compounds on viral production from HepAD38 cells (viral load by qPCR of HBV core sequence)
Assay type: cell-based
Details: Hepatitis B virus, HePAD38, 120 h, viral load lowering, 5 days, qPCR of supernatant, read-out: VL HepAD38 EC50 range
Summary of the method: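 EC50 and CC50 come from four-parameter logistic fits: HBV core DNA in supernatant by TaqMan qPCR against DNA standards, normalised to DMSO controls, and cell viability by CellTiter-Glo. Cells were plated at 50,000/well without tetracycline (2% FBS) and exposed to compounds (highest 10 μM) for 5 days, 37 °C.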

SMILES | EC50 [nM]
CC(C)Cn1nc(N)c(Cl)c1C1(O)CC2CC(c3ncn(C)c3C(=O)Nc3ccc(F)c(Cl)c3)CC2C1 (stereo not drawn) [Example 172, 4-(5-(3-Amino-4-chloro-1-isobutyl-1H-pyrazol-5-yl)-5-hydroxyoctahydropentalen-2-yl)-N-(3-Chloro-4-fluorophenyl)-1-methyl-1H-imidazole-5-carboxamide] | < 10
CCn1nc(C(F)(F)F)cc1C1(O)CC2CC(c3ncn(C)c3C(=O)Nc3ccc(F)c(Cl)c3)CC2C1 (stereo not drawn) [Example 173, N-(3-Chloro-4-fluorophenyl)-4-(5-(1-ethyl-3-(trifluoromethyl)-1H-pyrazol-5-yl)-5-hydroxyoctahydropentalen-2-yl)-1-methyl-1H-imidazole-5-carboxamide] | < 10
CCn1ncc(C2(O)CC3CC(c4ncn(C)c4C(=O)Nc4ccc(F)c(Cl)c4)CC3C2)c1C(F)(F)F (stereo not drawn) [Example 174, N-(3-Chloro-4-fluorophenyl)-4-(5-(1-ethyl-5-(trifluoromethyl)-1H-pyrazol-4-yl)-5-hydroxyoctahydropentalen-2-yl)-1-methyl-1H-imidazole-5-carboxamide] | < 10
Cn1cc(C2(O)CC3CC(c4ncn(C)c4C(=O)Nc4ccc(F)c(Cl)c4)CC3C2)c(F)n1 (stereo not drawn) [Example 175, N-(3-Chloro-4-fluorophenyl)-4-(5-(3-fluoro-1-methyl-1H-pyrazol-4-yl)-5-hydroxyoctahydropentalen-2-yl)-1-methyl-1H-imidazole-5-carboxamide] | < 10
Cn1cnc(C2CC3CC(O)(c4cc(C(N)=O)nn4C)CC3C2)c1C(=O)Nc1ccc(F)c(Cl)c1 (stereo not drawn) [Example 176, 5-(5-(5-((3-Chloro-4-fluorophenyl)carbamoyl)-1-methyl-1H-imidazol-4-yl)-2-hydroxyoctahydropentalen-2-yl)-1-methyl-1H-pyrazole-3-carboxamide] | < 10
CCn1nc(C(F)F)cc1C1(O)CC2CC(c3ncn(C)c3C(=O)Nc3ccc(F)c(F)c3)CC2C1 (stereo not drawn) [Example 177, 4-(5-(3-(Difluoromethyl)-1-ethyl-1H-pyrazol-5-yl)-5-hydroxyoctahydropentalen-2-yl)-N-(3,4-difluorophenyl)-1-methyl-1H-imidazole-5-carboxamide] | < 10
Cn1cc(C2(O)CC3CC(c4ncn(C)c4C(=O)Nc4ccc(F)c(Cl)c4)CC3C2)c(C(N)=O)n1 (stereo not drawn) [Example 178, 4-(5-(5-((3-Chloro-4-fluorophenyl)carbamoyl)-1-methyl-1H-imidazol-4-yl)-2-hydroxyoctahydropentalen-2-yl)-1-methyl-1H-pyrazole-3-carboxamide] | < 10
Cn1cnc(C2CC3CC(O)(c4cc(C(F)(F)F)n[nH]4)CC3C2)c1C(=O)Nc1ccc(F)c(Cl)c1 (stereo not drawn) [Example 179, N-(3-Chloro-4-fluorophenyl)-4-(5-hydroxy-5-(3-(trifluoromethyl)-1H-pyrazol-5-yl)octahydropentalen-2-yl)-1-methyl-1H-imidazole-5-carboxamide] | < 10
Cn1cc(C2(O)CC3CC(c4ncn(C)c4C(=O)Nc4ccc(F)c(Cl)c4)CC3C2)c(C#N)n1 (stereo not drawn) [Example 180, N-(3-Chloro-4-fluorophenyl)-4-(5-(3-cyano-1-methyl-1H-pyrazol-4-yl)-5-hydroxyoctahydropentalen-2-yl)-1-methyl-1H-imidazole-5-carboxamide] | < 10
Cn1cnc(C2CC3CC(O)(c4c(Br)c(C#N)nn4C)CC3C2)c1C(=O)Nc1ccc(F)c(Cl)c1 (stereo not drawn) [Example 181, 4-(5-(4-Bromo-3-cyano-1-methyl-1H-pyrazol-5-yl)-5-hydroxyoctahydropentalen-2-yl)-N-(3-chloro-4-fluorophenyl)-1-methyl-1H-imidazole-5-carboxamide] | < 10
Cn1cc(C2(O)CC3CC(c4ncn(C)c4C(=O)Nc4ccc(F)c(Cl)c4)CC3C2)c(Br)n1 (stereo not drawn) [Example 182, 4-(5-(3-Bromo-1-methyl-1H-pyrazol-4-yl)-5-hydroxyoctahydropentalen-2-yl)-N-(3-chloro-4-fluorophenyl)-1-methyl-1H-imidazole-5-carboxamide] | < 10
CC(=O)c1nn(C)cc1C1(O)CC2CC(c3ncn(C)c3C(=O)Nc3ccc(F)c(Cl)c3)CC2C1 (stereo not drawn) [Example 183, 4-(5-(3-Acetyl-1-methyl-1H-pyrazol-4-yl)-5-hydroxyoctahydropentalen-2-yl)-N-(3-chloro-4-fluorophenyl)-1-methyl-1H-imidazole-5-carboxamide] | 10 to 50
CC(N)c1nn(C)cc1C1(O)CC2CC(c3ncn(C)c3C(=O)Nc3ccc(F)c(Cl)c3)CC2C1 (stereo not drawn) [Example 184, 4-(5-(3-(1-Aminoethyl)-1-methyl-1H-pyrazol-4-yl)-5-hydroxyoctahydropentalen-2-yl)-N-(3-chloro-4-fluorophenyl)-1-methyl-1H-imidazole-5-carboxamide] | < 10
CC(=O)NC(C)c1nn(C)cc1C1(O)CC2CC(c3ncn(C)c3C(=O)Nc3ccc(F)c(Cl)c3)CC2C1 (stereo not drawn) [Example 185, 4-(5-(3-(1-Acetamidoethyl)-1-methyl-1H-pyrazol-4-yl)-5-hydroxyoctahydropentalen-2-yl)-N-(3-chloro-4-fluorophenyl)-1-methyl-1H-imidazole-5-carboxamide] | < 10
CC(O)c1nn(C)cc1C1(O)CC2CC(c3ncn(C)c3C(=O)Nc3ccc(F)c(Cl)c3)CC2C1 (stereo not drawn) [Example 186, N-(3-Chloro-4-fluorophenyl)-4-(5-hydroxy-5-(3-(1-hydroxyethyl)-1-methyl-1H-pyrazol-4-yl)octahydropentalen-2-yl)-1-methyl-1H-imidazole-5-carboxamide] | < 10
Cn1cc(C2(O)CC3CC(c4ncn(C)c4C(=O)Nc4ccc(F)c(Cl)c4)CC3C2)c(C(C)(C)O)n1 (stereo not drawn) [Example 187, N-(3-Chloro-4-fluorophenyl)-4-(5-hydroxy-5-(3-(2-hydroxypropan-2-yl)-1-methyl-1H-pyrazol-4-yl)octahydropentalen-2-yl)-1-methyl-1H-imidazole-5-carboxamide] | < 10
Cn1cc(C2(O)CC3CC(c4ncn(C)c4C(=O)Nc4ccc(F)c(Cl)c4)CC3C2)c(C(O)CO)n1 (stereo not drawn) [Example 190, N-(3-Chloro-4-fluorophenyl)-4-(5-(3-(1,2-dihydroxyethyl)-1-methyl-1H-pyrazol-4-yl)-5-hydroxyoctahydropentalen-2-yl)-1-methyl-1H-imidazole-5-carboxamide] | < 10
Cn1cc(C2(O)CC3CC(c4ncn(C)c4C(=O)Nc4ccc(F)c(Cl)c4)CC3C2)c(C(O)C(F)(F)F)n1 (stereo not drawn) [Example 191, N-(3-Chloro-4-fluorophenyl)-4-(5-hydroxy-5-(1-methyl-3-(2,2,2-trifluoro-1-hydroxyethyl)-1H-pyrazol-4-yl)octahydropentalen-2-yl)-1-methyl-1H-imidazole-5-carboxamide] | 50 to 500
CCn1nc(C(F)F)cc1C1(O)CC2CC(c3ncn(C)c3C(=O)Nc3ccc(F)c(C#N)c3)CC2C1 (stereo not drawn) [Example 192, N-(3-Cyano-4-fluorophenyl)-4-(5-(3-(difluoromethyl)-1-ethyl-1H-pyrazol-5-yl)-5-hydroxyoctahydropentalen-2-yl)-1-methyl-1H-imidazole-5-carboxamide] | < 10
Cn1cnc(C2CC3CC(O)(c4c[nH]nc4C(F)(F)F)CC3C2)c1C(=O)Nc1ccc(F)c(C#N)c1 (stereo not drawn) [Example 193, N-(3-Cyano-4-fluorophenyl)-4-(5-hydroxy-5-(3-(trifluoromethyl)-1H-pyrazol-4-yl)octahydropentalen-2-yl)-1-methyl-1H-imidazole-5-carboxamide] | < 10
Cn1cnc(C2CC3CC(O)(c4cc(C(F)(F)F)n[nH]4)CC3C2)c1C(=O)Nc1ccc(F)c(C#N)c1 (stereo not drawn) [Example 194, N-(3-Cyano-4-fluorophenyl)-4-(5-hydroxy-5-(3-(trifluoromethyl)-1H-pyrazol-5-yl)octahydropentalen-2-yl)-1-methyl-1H-imidazole-5-carboxamide] | 10 to 50
Cn1cnc(C2CC3CC(O)(c4[nH]nc(C(F)(F)F)c4Br)CC3C2)c1C(=O)Nc1ccc(F)c(C#N)c1 (stereo not drawn) [Example 195, 4-(5-(4-Bromo-3-(trifluoromethyl)-1H-pyrazol-5-yl)-5-hydroxyoctahydropentalen-2-yl)-N-(3-cyano-4-fluorophenyl)-1-methyl-1H-imidazole-5-carboxamide] | < 10
CC(C)Cc1cc(C2(O)CC3CC(c4ncn(C)c4C(=O)Nc4ccc(F)c(Cl)c4)CC3C2)n(C)n1 (stereo not drawn) [Example 196, N-(3-Chloro-4-fluorophenyl)-4-(5-hydroxy-5-(3-isobutyl-1-methyl-1H-pyrazol-5-yl)octahydropentalen-2-yl)-1-methyl-1H-imidazole-5-carboxamide] | < 10
Cn1cnc(C2CC3CC(O)(c4cc(NCC(F)(F)F)nn4C)CC3C2)c1C(=O)Nc1ccc(F)c(Cl)c1 (stereo not drawn) [Example 197, N-(3-Chloro-4-fluorophenyl)-4-(5-hydroxy-5-(1-methyl-3-((2,2,2-trifluoroethyl)amino)-1H-pyrazol-5-yl)octahydropentalen-2-yl)-1-methyl-1H-imidazole-5-carboxamide] | < 10
Cn1cnc(C2CC3CC(O)(c4cc(NS(C)(=O)=O)nn4C)CC3C2)c1C(=O)Nc1ccc(F)c(Cl)c1 (stereo not drawn) [Example 198, N-(3-Chloro-4-fluorophenyl)-4-(5-hydroxy-5-(1-methyl-3-(methylsulfonamido)-1H-pyrazol-5-yl)octahydropentalen-2-yl)-1-methyl-1H-imidazole-5-carboxamide] | 10 to 50
CN(C)c1cc(C2(O)CC3CC(c4ncn(C)c4C(=O)Nc4ccc(F)c(Cl)c4)CC3C2)n(C)n1 (stereo not drawn) [Example 199, N-(3-Chloro-4-fluorophenyl)-4-(5-(3-(dimethylamino)-1-methyl-1H-pyrazol-5-yl)-5-hydroxyoctahydropentalen-2-yl)-1-methyl-1H-imidazole-5-carboxamide] | < 10
CCNc1cc(C2(O)CC3CC(c4ncn(C)c4C(=O)Nc4ccc(F)c(Cl)c4)CC3C2)n(C)n1 (stereo not drawn) [Example 200, N-(3-Chloro-4-fluorophenyl)-4-(5-(3-(ethylamino)-1-methyl-1H-pyrazol-5-yl)-5-hydroxyoctahydropentalen-2-yl)-1-methyl-1H-imidazole-5-carboxamide] | < 10
